This experiment deals with T1, PBAL (pantoate β-alanine ligase; Pan synthetase) (Toxoplasma gondii, UniProt S8EZ77).
T1 construct: gene TGME49_265870; native full-length enzyme in live tachyzoites, untagged; about 88 kDa; nuclear; compared with pbal-ko
The experiment in a line: LC-MS isotope labelling of pantothenate in live parasites, RH versus pbal-ko. It counts as cell-based. Conditions: 0.8 mM pantoate with 0.8 mM 13C3/15N-beta-alanine, medium without Pan, 40 h, intact parasites in HFF.

T1 sequence (S8EZ77 entry or part of it): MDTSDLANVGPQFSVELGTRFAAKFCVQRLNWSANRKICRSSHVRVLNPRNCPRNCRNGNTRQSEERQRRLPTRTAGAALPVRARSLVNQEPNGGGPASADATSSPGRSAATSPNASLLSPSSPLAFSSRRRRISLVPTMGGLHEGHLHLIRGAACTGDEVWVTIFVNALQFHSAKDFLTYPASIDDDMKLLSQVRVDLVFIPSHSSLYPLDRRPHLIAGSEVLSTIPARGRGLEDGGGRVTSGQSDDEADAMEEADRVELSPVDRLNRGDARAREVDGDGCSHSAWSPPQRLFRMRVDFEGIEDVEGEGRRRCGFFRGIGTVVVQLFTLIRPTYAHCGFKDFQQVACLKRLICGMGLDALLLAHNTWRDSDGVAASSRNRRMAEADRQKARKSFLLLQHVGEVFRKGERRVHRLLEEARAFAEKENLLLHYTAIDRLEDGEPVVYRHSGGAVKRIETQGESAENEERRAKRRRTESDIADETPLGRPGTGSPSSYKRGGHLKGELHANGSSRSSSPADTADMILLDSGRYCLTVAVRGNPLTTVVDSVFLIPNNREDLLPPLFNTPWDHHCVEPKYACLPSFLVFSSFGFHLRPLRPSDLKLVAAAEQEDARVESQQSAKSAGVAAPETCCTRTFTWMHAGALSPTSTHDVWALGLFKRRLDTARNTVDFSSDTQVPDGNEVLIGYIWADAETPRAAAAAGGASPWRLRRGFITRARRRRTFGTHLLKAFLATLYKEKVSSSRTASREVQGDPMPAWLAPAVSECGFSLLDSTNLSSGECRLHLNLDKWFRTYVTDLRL

On to `NCCC(=O)O` [13C3/15N-β-Ala], for which the “LC-MS isotope labelling of pantothenate in live parasites, RH versus pbal-ko” value (labelled compound) is “led to the formation of labeled Pan in all strains except pbal-ko”.

For `CC(C)(CO)[C@@H](O)C(=O)O` [pantoate], the “LC-MS isotope labelling of pantothenate in live parasites, RH versus pbal-ko” value is listed as “led to the formation of labeled Pan in all strains except pbal-ko”.

Source of the values: article PMC8764084, “Pantothenate biosynthesis is critical for chronic infection by the neurotropic parasite Toxoplasma gondii” (Nature Communications, 2022).
